Data as given in patent US9937152B2, “Derivative of styrene-maleic acid copolymer” (priority 2013, dated 2018).

Assays:
colon cancer (C26) = format: in vivo, Balb mice
Protocol: SMA-THP and pirarubicin (THP) were administered intravenously to mice at the respective dose shown in Table 2 at Day 10 from the inoculation of cancer in mice, and the antitumor effect was evaluated at Day 50. Subsequently, 5×10^5 colon cancer (C26) cells were inoculated in the back in Balb mice and the model animals with tumor size of 5 to 6 mm at about Day 7 to 9 were treated.

in vivo = settings: mouse
[1] = dose 3 mg/kg (MTD amount) i.v. at Day 10, evaluated at Day 50

COc1cccc2c1C(=O)c1c(O)c3c(c(O)c1C2=O)C[C@@](O)(C(=O)CO)C[C@@H]3O[C@H]1C[C@H](N)[C@H](O[C@@H]2CCCCO2)[C@H](C)O1 [THP, pirarubicin]
Number of Metastatic Cancerous Nodes/Mouse: (1~5) (+), mice/group (colon cancer (C26); [1]): 2/5 | Number of Metastatic Cancerous Nodes/Mouse: (>6) (++), mice/group (colon cancer (C26); [1]): 3/5 | Number of Metastatic Cancerous Nodes/Mouse: No Metastasis (−), mice/group (colon cancer (C26); [1]): 0/5 | effect on the metastatic cancers (colon cancer (C26); maximum tolerated dose of 3 mg/kg): almost ineffective | MTD (in vivo; Balb, iv): 3 mg/kg | LD50 (in vivo): 14.4 mg/kg
